Results from US20240016784A1, “Y BOX BINDING PROTEIN 1 INHIBITORS” (Oregon Health & Science University, priority 2020, published 2024).

Assays:
[1] = target: T1, TMSB4X (Homo sapiens, UniProt P62328); assay: Cellular Thermal Shift Assay (CETSA) in OVCAR8 cells; format: binding; settings: SU056 2.5 μM, 1.5 h, read-out: increase in thermal stability (Tm shift) of TMSB4X
T1 construct: endogenous in cells; host or cells: OVCAR8
Description: The cellular thermal shift assay (CETSA) is based on the principle of protein-ligand interactions causing a shift in protein thermal stability (Savitski et al., 2014). When a protein interacts with ligand, its thermal stability increases, and this principle allows identification of which protein targets that are engaged by small molecules or drug candidates. We used this assay to identify protein targets of SU056. OVCAR8 cells were treated with SU056 (2.5 μM) for 1.5 h, and protein lysates were analyzed for a thermal shift. The heat maps represent the thermal stability of 804 soluble proteins in the presence and absence of SU056 compare with 37° C. (FIG. 3A).
Cellular Thermal Shift Assay (CETSA): The assay was performed as previously described (Savitski et al., 2014). Briefly, OVCAR8 cells were treated with vehicle (DMSO) or SU056 (2.5 μM) at 70-80% confluency for 1.5 h. Cells were harvested and washed with 1×PBS twice. Cells were pelleted and resuspended in PBS. 10 different PCR tubes with 1×10^6 cells/tube (in 100 μL PBS) were prepared for both the groups. Tubes were exposed to respective temperatures (37, 41, 44, 47, 50, 53, 56, 59, 63, 67° C.) for 3 min using a thermal cycler (Bio-Rad, CA, USA) followed by 2 min incubation at room temperature.

[2] = Liver toxicity parameters (ALT, AST, ALKP) in ID8 study; format: in vivo, C57BL/6 mice; settings: 20 mg/kg daily IP, 42 days
Description: These promising results led us to test SU093 and SU056 in vivo. C57BL/6 mice were implanted with 2×10^6 firefly luciferase (luc+)-expressing ID-8 syngeneic ovarian cancer cells subcutaneously. Once the tumors reached 100 mm^3 in size, we began daily intraperitoneal treatment with SU093 and SU056 at 20 mg/kg (vehicle control 30% PEG-300 in saline). Tumor growth was monitored via bioluminescence imaging (IVIS).
In vivo xenograft model and drug efficacy study: All animal experiments were reviewed and approved by the Animal Care and Use Committee of Stanford University, CA, USA. Luciferase tagged ID8 (2×10^6) or OVCAR8 (5×10^6) cells were implanted into the right flank of 6-7-week-old female C57BL/6 mice and NOD/SCID mice, respectively. Respective treatment began after tumors grew to 100-200 mm^3 diameters. The ID8 syngeneic mice model was treated with a vehicle (30% PEG-300 in saline), 20 mg/kg SU093, and 20 mg/kg SU056 intraperitoneally (IP) daily for 42 days. At the end of treatment, blood was collected from each mouse and analyzed for liver toxicity parameters, including Alanine Aminotransferase (ALT), Aspartate Aminotransferase (AST), and Alkaline Phosphatase (ALKP). […]

[3] = Pharmacokinetics study; format: in vivo; settings: injection of 20 mg/kg, intraperitoneal, mouse
Description: In a pharmacokinetics study in vivo, injection of 20 mg/kg SU056 led to a maximum serum concentration of 28.19 μg/mL with a T1/2 of ˜45 min. We then tested the synergism of paclitaxel and SU056 co-treatment in vivo in NOD-SCID mice implanted with OVCAR8 OC tumors as described above. Mice were given daily treatment of SU056 (10 mg/kg) and weekly treatment of paclitaxel (5 mg/kg) were administered intraperitoneally. […] This likely resulted from decreased paclitaxel efflux from OVCAR8 cells in the presence of SU056.
Pharmacokinetics study: SU056 Plasma concentration was determined by mass quantification analysis using an Agilent 6490 Funnel triple quadrupole (QQQ) mass spectrometer equipped with an Agilent 1290 infinity II UHPLC. An analytical C18 column, ZORBAX C18 (Eclipse Plus, 2.1×50 mm, 1.8 μm particle size) was used. The mobile phase was composed of 60% water buffered with 0.1% formic acid and 4 mM ammonium formate and 40% acetonitrile buffered with 0.1% formic acid. […] The precursor ion [M+H]+ and product ion for SU056 were monitored at m/z 370.0 and m/z 274.2, respectively. And the precursor ion [M+H]+ and product ion for IS were monitored at m/z 338.1 and m/z 260, respectively. […]
FIG. 10: Pharmacokinetics of SU056. […] After injection plasma was collected at respective time point and was analyzed using LC MS/MS as described in method.

T1 sequence (P62328 whole entry): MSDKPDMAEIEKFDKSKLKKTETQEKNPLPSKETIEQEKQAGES

Question: What does the source list for `O=C1OCC2=C1C(c1cccc(F)c1)c1cc3c(cc1N2CCO)OCO3` (stereo not shown) [SU056, 9-(3-fluorophenyl)-5-(2-hydroxyethyl)-6,9-dihydro-[1,3]dioxolo[4,5-g]furo[3,4-b]quinolin-8(5H)-one]?
Answer: ΔTm at 2.5 µM [1]: 4.43 ± 1.31 °C; impact on blood chemistry indicators (AST, ALT, alkaline phosphatase) [2]: no significant impact; maximum serum concentration [3]: 28.19 µg/mL; half-life ([3]; plasma, ip): ~45 min
